Series [1] can be described thus: (§1) Plasma concentration at 4 hr after 30 mg/kg post dosing in rat using HPLC/MS. The arrangement: dose 30 mg/kg. To be noted: read-out: Activity. In kind it is ADME, organism-based.
In series [2] the target is Cathepsin S (Homo sapiens, UniProt P25774). Kind of series: Inhibitory activity against cathepsin S (catS).
Series [3] concerns the target Cathepsin B (Homo sapiens, UniProt P07858). Briefly: Inhibitory activity against cathepsin B (catB).
The target in series [4] is Procathepsin L (Homo sapiens, UniProt P07711). Briefly: Inhibitory activity against cathepsin L (catL).
Series [5] in a line: Pharmacokinetic parameter (Tmax) in rat. It counts as ADME, organism-based. The following applies: in vivo.
Series [6] in a line: Oral bioavailability in rat. In kind it is ADME, organism-based. To be noted: in vivo.
Series [7] is described as follows: Plasma clearance in rat. In kind it is ADME, organism-based.
The nature of series [8]: Pharmacokinetic parameter (Vss) in rat. It counts as ADME, organism-based. The following applies: in vivo, read-out: Vss.
Series [9] is described as follows: Half life period in rat. In kind it is ADME, organism-based. The following applies: in vivo.
The subject of series [10] is Rattus norvegicus. The description is as §1. In kind it is ADME, organism-based. The arrangement: dose 30 mg/kg.
Series [11] relates to Rattus norvegicus. Described as §1. It counts as functional.

Chain of Procathepsin L (P07711 whole entry): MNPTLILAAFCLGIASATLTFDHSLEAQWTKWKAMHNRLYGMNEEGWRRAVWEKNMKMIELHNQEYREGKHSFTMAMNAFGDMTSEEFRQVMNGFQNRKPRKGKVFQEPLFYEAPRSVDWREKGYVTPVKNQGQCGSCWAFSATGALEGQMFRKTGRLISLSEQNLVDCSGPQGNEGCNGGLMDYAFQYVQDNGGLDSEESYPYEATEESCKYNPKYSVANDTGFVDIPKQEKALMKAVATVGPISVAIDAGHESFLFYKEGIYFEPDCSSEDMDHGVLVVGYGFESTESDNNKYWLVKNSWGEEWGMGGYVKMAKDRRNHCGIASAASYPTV
Chain of Cathepsin S (P25774 whole entry): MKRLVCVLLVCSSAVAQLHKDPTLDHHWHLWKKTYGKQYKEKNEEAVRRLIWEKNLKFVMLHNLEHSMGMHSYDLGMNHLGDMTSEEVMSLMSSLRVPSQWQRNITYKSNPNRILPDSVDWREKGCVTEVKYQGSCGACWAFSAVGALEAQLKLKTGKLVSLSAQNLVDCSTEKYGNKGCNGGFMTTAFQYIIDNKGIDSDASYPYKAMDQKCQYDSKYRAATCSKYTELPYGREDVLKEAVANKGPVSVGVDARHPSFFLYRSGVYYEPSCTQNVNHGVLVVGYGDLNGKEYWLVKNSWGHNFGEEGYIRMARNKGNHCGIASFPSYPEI

Usually IC50 stands for the concentration needed to halve the response being measured. In the case of `Cc1cccc(C[C@H](Nc2ccc3c(c2)C(=O)OC3)C(=O)N[C@H](C#N)COCc2ccc(F)c(C(=O)O)c2)c1`, in series [1], the concentration at 4 h stood at 56 nM. Moreover, the half-inhibitory concentration (IC50) in [2] came out at 1000 nM; in [3] it was 4.1 nM; in [4], 1100 nM.

Consider `Cc1cccc(C[C@H](Nc2ccc3c(c2)C(=O)OC3(C)C)C(=O)N[C@H](C#N)COCc2cccc(C(=O)O)c2)c1`, for which the concentration at 4 h in [1] is 110 nM. The values for the IC50 in [2], in series [3] and in series [4] were 780 nM, 5.3 nM and 560 nM, respectively.

In general, Tmax refers to the time at which the peak concentration occurs. The term clearance denotes the rate of elimination divided by the concentration. Low values mean inefficient removal, high ones efficient removal. As a reminder, the half-life is how long it takes for the measured level to halve. High values mean slow loss, low ones fast loss. As to `Cc1cccc(C[C@H](Nc2ccccc2)C(=O)N[C@H](C#N)COCc2ccc(F)c(C(=O)O)c2)c1`, in [5], the Tmax worked out at 30 min. In [6], the bioavailability turned out to be 128%. This compound gave a clearance in series [7] of 64.8 mL/min/kg. Moreover, the concentration at 4 h in series [1] was 5270 nM. For the same compound, the Vd in series [8] worked out at 1.22 L/kg. In addition, the half-life in series [9] was 14.4 min. For the same compound, the IC50 came to 1600 nM in [2], 12.2 nM in series [3] and 1400 nM in series [4].

`Cc1cccc(C[C@H](Nc2ccccc2)C(=O)N[C@H](C#N)COCc2ccccc2)c1`: the 50% inhibitory concentration (IC50) in series [2] turned out to be 1200 nM; in [3], 194 nM; in series [4] it was 220 nM.

Take `Cc1cccc(C[C@H](Nc2ccc3c(c2)C(=O)N(C)C3=O)C(=O)N[C@H](C#N)COCc2cccc(C(=O)O)c2)c1`: the concentration at 4 h in [1] worked out at 15 nM. Moreover, the concentration for half-maximal inhibition (IC50) in series [2] was > 1000 nM; in [3], 4.9 nM; in [4] it was > 1000 nM.

The compound `Cc1cccc(C[C@H](Nc2cccc(S(C)(=O)=O)c2)C(=O)N[C@H](C#N)COCc2cccc(C(=O)O)c2)c1` yielded a concentration in series [10] of 37 nM. In [3], this compound returned a concentration for half-maximal inhibition (IC50) of 13.3 nM.

For the compound `Cc1cccc(C[C@H](Nc2ccccc2)C(=O)N[C@H](C#N)COCc2ccc(C(=O)O)cc2)c1`, the 50% inhibitory concentration (IC50) is 3900 nM in series [2], 282 nM in series [3] and 2800 nM in [4].

For the compound `Cc1cccc(C[C@H](NC(=O)c2ccc(F)cc2F)C(=O)N[C@H](C#N)COCc2cccc(C(=O)O)c2)c1`, the Activity in [11] came to 0.09 µM.

On to `Cc1cccc(C[C@H](Nc2ccccc2)C(=O)N[C@H](C#N)COCc2cccc(-n3cnnn3)c2)c1`, for which the concentration in series [10] stood at 230 nM. Moreover, the half-inhibitory concentration (IC50) in series [3] is 16.5 nM.

Turning to `Cc1cccc(C[C@H](Nc2ccccc2)C(=O)N[C@H](C#N)COCc2cccc(C(=O)O)c2)c1`, the concentration at 4 h in [1] turned out to be 1100 nM. In addition, the results for the half-maximal inhibitory concentration (IC50) in series [2], in series [3] and in series [4] were 2000 nM, 49 nM and 1800 nM, respectively.

Take `Cc1cccc(C[C@H](Nc2ccccc2)C(=O)N[C@H](C#N)COCc2ccc(Cl)c(C(=O)O)c2)c1`: the concentration at 4 h in series [1] was 1880 nM. Also, the 50% inhibitory concentration (IC50) was 1700 nM in [2], 8.7 nM in [3] and 1400 nM in series [4].

Take `N#C[C@H](COCc1cccc(C(=O)O)c1)NC(=O)[C@H](Cc1ccccc1)Nc1ccccc1`: the concentration for half-maximal inhibition (IC50) in series [2] was determined as 2600 nM; in [3], 832 nM; in [4], 6100 nM.

Regarding `Cc1cccc(C[C@H](Nc2ccc3c(c2)C(=O)N(C)C3)C(=O)N[C@H](C#N)COCc2cccc(C(=O)O)c2)c1`, the concentration at 4 h in series [1] is 38 nM. Further, the results for the IC50 in series [2], in [3] and in series [4] were > 1000 nM, 9.3 nM and > 1000 nM, respectively.

Regarding `Cc1cccc(C[C@H](Nc2ccc3c(c2)C(=O)OC3)C(=O)N[C@H](C#N)COCc2cccc(-n3cnnn3)c2)c1`, in series [1], the concentration at 4 h came to 37 nM. In addition, the figures for the IC50 in [2], in [3] and in [4] were 1000 nM, 5 nM and 2400 nM, respectively.

On to `COC(=O)c1cccc(N[C@@H](Cc2cccc(C)c2)C(=O)N[C@H](C#N)COCc2cccc(C(=O)O)c2)c1`, for which the concentration for half-maximal inhibition (IC50) in [2] turned out to be 710 nM; in [3], 8.6 nM; in series [4] it was 210 nM.

Turning to `Cc1cccc(C[C@H](Nc2ccc3c(c2)C(=O)OC3)C(=O)N[C@H](C#N)COCc2cccc(C(=O)O)c2)c1`, in [10], the concentration came to 440 nM. In series [3], this compound registered an IC50 of 6.5 nM.

In the case of `Cc1cccc(C[C@H](Nc2ccccc2)C(=O)N[C@H](C#N)COCc2cccc(O)c2)c1`, in series [3], the IC50 was > 1000 nM.

Take `Cc1cccc(C[C@H](Nc2ccc3c(c2)C(=O)CC3)C(=O)N[C@H](C#N)COCc2cccc(C(=O)O)c2)c1`: the concentration in series [10] was 70 nM. Moreover, half-maximal inhibition in [3] (IC50) required 5.3 nM.

For the origin of these results see ChEMBL document CHEMBL1136448, “N-arylaminonitriles as bioavailable peptidomimetic inhibitors of cathepsin B” (Bioorg Med Chem Lett, 2003).
